Data taken from publication PMC3537848 (Cancer research, 2012).
Residue numbers refer to the chain shown, from its start.

Tests used:
[1] = target: T1, Retinoid X receptor-α (RXRα) (Homo sapiens, UniProt P19793, R316E); test: Gal4 luciferase reporter in CV-1 cells; assay type: cell-based
T1 sequence (P19793 198-462 R316E): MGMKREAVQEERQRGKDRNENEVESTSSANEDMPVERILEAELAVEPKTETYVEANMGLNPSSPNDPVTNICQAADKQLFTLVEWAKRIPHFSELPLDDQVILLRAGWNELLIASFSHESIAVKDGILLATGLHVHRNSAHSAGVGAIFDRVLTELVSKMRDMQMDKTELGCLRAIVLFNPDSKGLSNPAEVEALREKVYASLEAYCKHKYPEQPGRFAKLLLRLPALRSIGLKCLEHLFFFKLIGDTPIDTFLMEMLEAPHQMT

[2] = target: T2, Retinoid X receptor-α (RXRα) (Homo sapiens, UniProt P19793); test: Gal4-RXRα-LBD luciferase reporter in CV-1 cells; assay type: cell-based
T2 sequence (P19793 198-462): T1 sequence (P19793 198-462 R316E) with E119R

[3] = target: T3, Retinoid X receptor-α (RXRα) (Homo sapiens, UniProt P19793); test: radioligand competition with [3H]-9-cis-RA; assay type: binding
T3 sequence (P19793 223-462 limits assumed): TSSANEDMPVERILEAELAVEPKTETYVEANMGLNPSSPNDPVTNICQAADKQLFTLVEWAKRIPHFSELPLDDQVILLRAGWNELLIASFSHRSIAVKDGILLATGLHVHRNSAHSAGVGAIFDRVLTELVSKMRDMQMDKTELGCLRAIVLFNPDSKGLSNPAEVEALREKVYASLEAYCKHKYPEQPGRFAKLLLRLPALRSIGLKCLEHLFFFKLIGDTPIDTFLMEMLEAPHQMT

[4] = target: T1, Retinoid X receptor-α (RXRα); test: Gal4 luciferase reporter in CV-1 cells, antagonism of CD3254; assay type: cell-based

SMILES	Gal4 luciferase reporter in CV-1 cells (agonist) [1]	Gal4-RXRα-LBD luciferase reporter in CV-1 cells (agonist) [2]	IC50 [3]	Gal4 luciferase reporter in CV-1 cells, antagonism of CD3254 [4]
Cc1cc2c(cc1-c1cc(/C=C/C(=O)O)ccc1O)C(C)(C)CCC2(C)C [CD3254]	CD3254 could still activate the RXRα/R316E mutant	CD3254 strongly induced Gal4-RXRα/LBD activity, which was comparable to that induced by 9-cis-RA		
CC(C)=CCC/C(C)=C/Cc1c(O)c(O)cc2c(=O)c3c(O)c(CC=C(C)C)c(O)cc3oc12 [CF31, 1,3,6,7-tetrahydroxy-2-(3-methyl-2-butenyl)-5-(3,7-dimethyl-2,6-octadienyl)xanthone]			9.6 µM	CD3254-induced reporter activity was potently inhibited by CF31 in a dose dependent manner (Fig. 2C)
